Results as given in patent US12173018B2, “Penicillin-binding protein inhibitors” (priority 2018, dated 2024).
Read-outs that look alike come from different tables or passages of the source.

Experiments:
E. coli ATCC 25922 = experiment: Broth microdilution MIC, E. coli ATCC 25922; type: cell-based; settings: Escherichia coli
Procedure: (§1) To determine the ability of test compounds to potentiate the inhibition of the growth of bacterial strains, classic cell based broth microdilution minimum inhibitory concentration (MIC) assays were employed. MIC assays are performed according to CLSI methods except where otherwise noted (CLSI, 2011 and CLSI, 2009). The reference type strain E. coli ATCC 25922, the wild-type parent strain E. coli AG100, the hyper-permeable E. coli 901C and E. coli D22 and the E. coli AG100A strain lacking the acrAB efflux pump encoding genes were used to determine the ability of the PBP inhibitors to penetrate the outer membrane of gram-negative bacteria and inhibit bacterial growth. […] The P. aeruginosa PAO1, P. aeruginosa ATCC 27853 and A. baumannii ATCC 19606, along with the hyper-permeable P. aeruginosa ATCC 35151 and an engineered efflux pump-compromised strain of P. aeruginosa (ΔmexAB-oprM) were used to determine the ability of PBP inhibitors to penetrate the outer membrane of P. aeruginosa and A. baumannii and assess antibacterial activity against these important gram-negative organisms.
(§2) Briefly, cryo-preserved bacterial cultures of challenge strains are streaked for isolation on appropriate agar medium, in this case Mueller Hinton II agar. Following incubation to allow growth of the colonies, plates are sealed with parafilm and stored refrigerated for up to two weeks. For preparation of assay inoculum and to ensure low variability, at least 5 colonies are picked from the agar plates with an inoculating loop and aseptically transferred to a culture tube containing 3 mL of Mueller-Hinton Broth (supplemented with divalent cations to required levels based on Manufacturers' certification). The broth culture is grown for 3-5 hours at 37° C. with shaking at 200 rpm. Meanwhile, 2-fold serial dilutions of test compounds are conducted in a 96 well plate with a final volume of 75 μL per well at 2-fold the final desired concentration. After the dilution plates are set up the growing cultures are then diluted in a cuvette containing MH II broth and the optical density is measured at 600 nm. The Inoculum is diluted such that 75 μL of this culture in Mueller-Hinton Broth results in a starting bacterial concentration of 5×10^5 CFU/mL when added to the dilution plates. The plates are incubated for 16-20 hours at 37° C. The MIC values are read visually as the lowest concentration well with no bacterial growth.

E. coli AG100A = experiment: microbe, parasite or virus in culture; type: cell-based; settings: Escherichia coli, read-out: MIC E. coli AG100A
Procedure: as §1, §2

K. pneumoniae UMM = experiment: microbe, parasite or virus in culture; type: cell-based; settings: Klebsiella pneumoniae; K. pneumoniae UMM producing SHV-5 and KPC-2; read-out: MIC K. pneumoniae UMM
Procedure: as §1, §2

E. coli 901C = experiment: microbe, parasite or virus in culture; type: cell-based; settings: Escherichia coli; hyper-permeable E. coli 901C, broth microdilution; read-out: MIC E. coli 901C
Procedure: as §1, §2

E. coli AG100 = experiment: Broth microdilution MIC, E. coli AG100 (wild-type parent); type: cell-based; settings: Escherichia coli; wild-type parent E. coli AG100, broth microdilution; read-out: MIC E. coli AG100
Procedure: To determine the ability of test compounds to potentiate the inhibition of the growth of bacterial strains, classic cell based broth microdilution minimum inhibitory concentration (MIC) assays were employed.
as §2

K. pneumoniae SI-117 = experiment: microbe, parasite or virus in culture; type: cell-based; settings: Klebsiella pneumoniae, SI117, read-out: MIC K. pneumoniae SI-117
Procedure: as §1, §2

K. pneumoniae 848844 = experiment: microbe, parasite or virus in culture; type: cell-based, Klebsiella pneumoniae; settings: Klebsiella pneumoniae; K. pneumoniae 848844 producing SHV-11 and KPC-2; read-out: MIC K. pneumoniae 848844
Procedure: as §1, §2

E. coli PBP3 = E. coli PBP3 (Escherichia coli (strain K12), UniProt P0AD68); experiment: E. coli PBP3 Bocillin-FL fluorescence polarization competition binding assay
From the text: To determine the ability of boronic acid-based test PBP inhibitors to bind Penicillin Binding Proteins (PBPs), Bocillin-FL (fluorescently-labeled penicillin V; ThermoFisher Scientific) was used in a fluorescence polarization (FP) competition binding assay to assess inhibitor binding to PBP2, PBP3 or PBP4 from Escherichia coli. PBPs were cloned and purified as described previously (King, D. T, et al., ACS Infectious Diseases 2015, 1, 175-184). To establish assay conditions for competition binding, an enzyme titration/saturation binding experiment was initially performed. Bocillin-FL was prepared at 0.2 μM in a buffer comprised of 50 mM Hepes (pH 8.0), 300 mM NaCl and 5% (v/v) glycerol. Saturation binding was performed by mixing 40 μl of PBP solutions ranging in concentrations from 0-12 μM with 40 μl of the 0.2 μM Bocillin-FL solution, in individual wells of a black 384-well microplate. FP was measured immediately upon mixing (Excitation, 490 nm; Emission, 520 nm; g-factor, 0.96), using a Cytation3 (BioTek) microplate reader and measured continuously for up to 120 minutes. […] Assays (80 μl final volume) were performed with PBPs at a final concentration of 1.5 μM, Bocillin-FL at 0.1 μM and beta-lactam concentrations that ranged from 0-1000 μM. […] Bocillin-FL was added and the FP immediately measured for 60 minutes (90 minutes for PBP2). The beta-lactam potency was reported as the concentration of beta-lactam required to reduce binding of Bocillin-FL by […] (EC50). […] Binding assays for boronic acid PBP inhibitors were performed in an identical fashion.

E. coli D22 = experiment: microbe, parasite or virus in culture; type: cell-based; settings: Escherichia coli; hyper-permeable E. coli D22, broth microdilution; read-out: MIC E. coli D22
Procedure: as §1, §2

[1] = ATCC25922, read-out: MIC E. coli 25922
[2] = ATCC25922, E. coli ATCC 25922, broth microdilution, read-out: MIC E. coli 25922

E. coli PBP3, sequence (P0AD68 whole entry): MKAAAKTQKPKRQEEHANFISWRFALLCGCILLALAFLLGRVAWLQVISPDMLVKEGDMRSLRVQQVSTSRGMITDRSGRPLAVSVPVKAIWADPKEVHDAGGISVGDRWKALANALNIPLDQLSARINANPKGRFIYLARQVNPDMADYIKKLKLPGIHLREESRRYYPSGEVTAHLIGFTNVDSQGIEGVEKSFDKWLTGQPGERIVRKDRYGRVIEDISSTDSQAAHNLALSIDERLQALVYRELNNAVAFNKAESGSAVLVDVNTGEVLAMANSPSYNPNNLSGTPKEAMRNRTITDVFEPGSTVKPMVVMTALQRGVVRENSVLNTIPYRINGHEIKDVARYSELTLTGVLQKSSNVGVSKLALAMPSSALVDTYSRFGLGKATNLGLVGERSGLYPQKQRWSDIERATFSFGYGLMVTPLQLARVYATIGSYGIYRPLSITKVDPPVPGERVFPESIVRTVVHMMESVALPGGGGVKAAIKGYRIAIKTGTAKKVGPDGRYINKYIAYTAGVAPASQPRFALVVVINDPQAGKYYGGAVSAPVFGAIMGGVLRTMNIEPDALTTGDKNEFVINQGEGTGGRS

Structure (SMILES)	MIC (E. coli ATCC 25922; [1])	MIC (E. coli AG100A)	MIC (K. pneumoniae UMM)	MIC (E. coli 901C)	MIC (E. coli AG100)	MIC (K. pneumoniae SI-117)	MIC (K. pneumoniae 848844)	MIC (E. coli ATCC 25922; [2])	EC50 (E. coli PBP3; fluorescence polarization competition binding with Bocillin-FL, read-out: E. coli K12 PBP3 Potency)	MIC (E. coli D22)	EC50 (E. coli PBP3)
CCNC(=O)NC(C(=O)N[C@H]1Cc2cccc(C(=O)O)c2OB1O)c1csc(N)n1 (stereo partly drawn) [Example 6, (3R)-3-(2-(2-aminothiazol-4-yl)-2-(3-ethylureido)acetamido)-2-hydroxy-3,4-dihydro-2H-benzo[e][1,2]oxaborinine-8-carboxylic acid]	> 128 µg/mL	8 to 16 µg/mL	> 128 µg/mL	8 to 16 µg/mL	> 128 µg/mL	–	–	–	–	–	–
Nc1nc(C(NS(=O)(=O)c2cccnc2)C(=O)N[C@H]2Cc3cccc(C(=O)O)c3OB2O)cs1 (stereo partly drawn) [Example 7, (3R)-3-(2-(2-aminothiazol-4-yl)-2-(pyridine-3-sulfonamido)acetamido)-2-hydroxy-3,4-dihydro-2H-benzo[e][1,2]oxaborinine-8-carboxylic acid]	> 128 µg/mL	32 to 64 µg/mL	> 128 µg/mL	8 to 16 µg/mL	> 128 µg/mL	–	–	–	–	–	–
CCN1CCN(C(=O)N[C@@H](C)C(=O)N[C@H]2Cc3cccc(C(=O)O)c3OB2O)C(=O)C1=O [Example 8, (R)-3-((S)-2-(4-Ethyl-2,3-dioxopiperazine-1-carboxamido)propanamido)-2-hydroxy-3,4-dihydro-2H-benzo[e][1,2]oxaborinine-8-carboxylic acid]	> 128 µg/mL	> 128 µg/mL	> 128 µg/mL	> 128 µg/mL	> 128 µg/mL	> 128 µg/mL	–	–	–	–	–
CCCN1CCN(C(=O)NC(C(=O)N[C@H]2Cc3cccc(C(=O)O)c3OB2O)c2ccc(O)cn2)C(=O)C1=O (stereo partly drawn) [Example 134, (3R)-3-(2-(2,3-dioxo-4-propylpiperazine-1-carboxamido)-2-(5-hydroxypyridin-2-yl)acetamido)-2-hydroxy-3,4-dihydro-2H-benzo[e][1,2]oxaborinine-8-carboxylic acid]	–	8 to 16 µg/mL	32 to 64 µg/mL	2 to 4 µg/mL	32 to 64 µg/mL	32 to 64 µg/mL	32 to 64 µg/mL	32 to 64 µg/mL	< 30 µM	8 to 16 µg/mL	–
CCN1CCN(C(=O)NC(C(=O)N[C@H]2Cc3cccc(C(=O)O)c3OB2O)c2ccc(O)c(O)n2)C(=O)C1=O (stereo partly drawn) [Example 140, (3R)-3-(2-(5,6-dihydroxypyridin-2-yl)-2-(4-ethyl-2,3-dioxopiperazine-1-carboxamido)acetamido)-2-hydroxy-3,4-dihydro-2H-benzo[e][1,2]oxaborinine-8-carboxylic acid]	–	2 to 4 µg/mL	8 to 16 µg/mL	0.5 to 1 µg/mL	32 to 64 µg/mL	32 to 64 µg/mL	32 to 64 µg/mL	8 to 16 µg/mL	–	2 to 4 µg/mL	30 to 500 µM
CCN1CCN(C(=O)NC(C(=O)N[C@H]2Cc3ccc(F)c(C(=O)O)c3OB2O)c2cccnc2)C(=O)C1=O (stereo partly drawn) [Example 141, (3R)-3-(2-(4-ethyl-2,3-dioxopiperazine-1-carboxamido)-2-(pyridin-3-yl)acetamido)-7-fluoro-2-hydroxy-3,4-dihydro-2H-benzo[e][1,2]oxaborinine-8-carboxylic acid]	–	32 to 64 µg/mL	32 to 64 µg/mL	2 to 4 µg/mL	> 128 µg/mL	> 128 µg/mL	> 128 µg/mL	> 128 µg/mL	–	8 to 16 µg/mL	30 to 500 µM
CCN1CCN(C(=O)NC(C(=O)N[C@H]2Cc3cccc(C(=O)O)c3OB2O)c2ccc(O)c(S(N)(=O)=O)c2)C(=O)C1=O (stereo partly drawn) [Example 143, (3R)-3-(2-(4-ethyl-2,3-dioxopiperazine-1-carboxamido)-2-(4-hydroxy-3-sulfamoylphenyl)acetamido)-2-hydroxy-3,4-dihydro-2H-benzo[e][1,2]oxaborinine-8-carboxylic acid]	–	2 to 4 µg/mL	32 to 64 µg/mL	< 0.25 µg/mL	32 to 64 µg/mL	> 128 µg/mL	> 128 µg/mL	32 to 64 µg/mL	–	2 to 4 µg/mL	–
CCN1CCN(C(=O)NC(C(=O)N[C@H]2Cc3cccc(C(=O)O)c3OB2O)c2ccc(OC)c(S(N)(=O)=O)c2)C(=O)C1=O (stereo partly drawn) [Example 144, (3R)-3-(2-(4-ethyl-2,3-dioxopiperazine-1-carboxamido)-2-(4-methoxy-3-sulfamoylphenyl)acetamido)-2-hydroxy-3,4-dihydro-2H-benzo[e][1,2]oxaborinine-8-carboxylic acid]	–	8 to 16 µg/mL	32 to 64 µg/mL	0.5 to 1 µg/mL	8 to 16 µg/mL	> 128 µg/mL	> 128 µg/mL	> 128 µg/mL	–	8 to 16 µg/mL	30 to 500 µM
CCN1CCN(C(=O)N[C@H](C(=O)N[C@H]2Cc3cccc(C(=O)O)c3OB2O)c2ccc(O)c(F)c2)C(=O)C1=O [Example 155, (R)-3-((S)-2-(4-ethyl-2,3-dioxopiperazine-1-carboxamido)-2-(3-fluoro-4-hydroxyphenyl)acetamido)-2-hydroxy-3,4-dihydro-2H-benzo[e][1,2]oxaborinine-8-carboxylic acid]	–	8 to 16 µg/mL	> 128 µg/mL	0.5 to 1 µg/mL	> 128 µg/mL	> 128 µg/mL	> 128 µg/mL	> 128 µg/mL	–	8 to 16 µg/mL	30 to 500 µM
CCN1CCN(C(=O)NC(C(=O)N[C@H]2Cc3cccc(C(=O)O)c3OB2O)c2ncccc2F)C(=O)C1=O (stereo partly drawn) [Example 162, (3R)-3-(2-(4-ethyl-2,3-dioxopiperazine-1-carboxamido)-2-(3-fluoropyridin-2-yl)acetamido)-2-hydroxy-3,4-dihydro-2H-benzo[e][1,2]oxaborinine-8-carboxylic acid]	–	2 to 4 µg/mL	32 to 64 µg/mL	0.5 to 1 µg/mL	32 to 64 µg/mL	32 to 64 µg/mL	> 128 µg/mL	32 to 64 µg/mL	–	8 to 16 µg/mL	30 to 500 µM
CCN1CCN(C(=O)NC(C(=O)N[C@H]2Cc3cccc(C(=O)O)c3OB2O)c2ncc(C(=O)NCCO)cc2F)C(=O)C1=O (stereo partly drawn) [Example 241, (3R)-3-(2-(4-ethyl-2,3-dioxopiperazine-1-carboxamido)-2-(3-fluoro-5-((2-hydroxyethyl)carbamoyl)pyridin-2-yl)acetamido)-2-hydroxy-3,4-dihydro-2H-benzo[e][1,2]oxaborinine-8-carboxylic acid]	> 128 µg/mL	8 to 16 µg/mL	> 128 µg/mL	0.5 to 1 µg/mL	> 128 µg/mL	> 128 µg/mL	> 128 µg/mL	–	–	8 to 16 µg/mL	–
